{
  "source": "patent US12390474B2",
  "about": "“Immediate release multilayer tablet” (priority 2020, dated 2025)",
  "key": {"[1]": {"assay": "Particle size distribution of samidorphan L-malate", "type": "physicochemical", "text": "The particle size distribution of the samidorphan or samidorphan pharmaceutically acceptable salt (e.g., L-malate) present in a disclosed tablet (e.g., as part of a first tablet layer) may be for example, a (D10) of between about 10 μm to about 80 μm, a (D50) of between about 40 μm to about 200 μm and a (D90) of between about 100 μm to about 300 μm, more preferably a D10 of between about 25 μm and about 50 μm; the D50 of between about 60 μm and about 100 μm. In some embodiments, D90 of the samidorphan (e.g., L-malate salt) is between about 120 μm and about 175 μm. […] Particle size (diameter) may be determined by conventional techniques such as dynamic light scattering. The ‘Dx’ nomenclature means that ‘x’ percent of the particles have a number average diameter (‘D’) less than or equal to the reported value when measured by static or dynamic light scattering techniques known to those skilled in the art. (e.g. D10=175 μm, means that 10% of particles have a number average diameter of less than or equal to 175 μm), a D50 (or Dv50) of less than 300 μm, means that 50% of the particle population has a diameter of less than or equal to 300 μm. The term “Dx” as used herein refers to a volume based size and is equivalent to the term “DvX” commonly used to characterize particle sizes. Since the particles of the present invention may be irregular in shape, an approximation of the particle size is made on the basis of the volume-based particle size, which specifies the diameter of the sphere that has same volume as a given particle. Unless otherwise specified, all particle sizes are specified in terms of volume-based measurements and are measured by laser light scattering/diffraction. Particle sizes are then determined based on Mie scattering theory.\nFor samidorphan L-malate, a recrystallization process was implemented providing particle size control during manufacturing to intentionally target a particle size distribution similar to the size of the drug product filler excipients. Unmilled and recrystallized grades of samidorphan L-malate were characterized for particle size distribution using 3 unique lots of each. The recrystallization was targeted to produce material with less fine particles thus increasing the D10. A slight increase in the D50 and decrease in the D90 adjusted the centerpoint of the distribution and decreased the overall span of the distribution. Overall the recrystallized materials had tighter distributions and reduced lot to lot variability, indicating better control. No change in the solid state form was observed between unmilled and recrystallized samidorphan L-malate as assessed by PXRD spectral comparison."}, "[2]": {"assay": "Chemical compatibility of olanzapine and samidorphan L-malate, stability at 40° C./75% RH by HPLC", "type": "physicochemical", "conditions": "for Percentage Related Compound B Impurity: 40° C./75% RH, ND: ≤LOD (0.02 wt %), LOQ: 0.05 wt %; for Percentage Total Impurities: 40° C./75 RH", "procedure": "Samples in 20 ml Wheaton scintillation vials were stored at 40° C./75% RH in open and closed vial configurations. Closed vials were vials closed with a urea cap and wrapped using parafilm under ambient conditions. The contents of the vials were tested at the start of the study and after 2, 6 and 12 weeks. At each time point samples were analysed by reversed phase HPLC (Waters ACQUITY UPLC H-Class System) with ACQUITY PDA Detector using a Waters ACQUITY UPLC CSH C18 Column, 3 mm×100 mm, and a gradient elution of acetate buffer pH 5.1 and 50/50 (v/v) acetonitrile/methanol."}, "[3]": {"conditions": "cited from earlier work"}},
  "data": [
    {"smiles": "NC(=O)c1ccc2c(c1O)[C@]13CCN(CC4CC4)[C@H](C2)[C@]1(O)CCC(=O)C3.O=C(O)C[C@H](O)C(=O)O", "note": "[Sample number 2]", "values": [
      {"measurement": "Particle size D10", "setting": "[1]; listed as 2", "result": 10, "unit": "μm"},
      {"measurement": "Particle size D50", "setting": "[1]; listed as 2", "result": 36, "unit": "μm"},
      {"measurement": "Particle size D90", "setting": "[1]; listed as 2", "result": 231, "unit": "μm"}
    ]},
    {"smiles": "NC(=O)c1ccc2c(c1O)[C@]13CCN(CC4CC4)[C@H](C2)[C@]1(O)CCC(=O)C3.O=C(O)C[C@H](O)C(=O)O", "note": "[Sample number 3]", "values": [
      {"measurement": "Particle size D10", "setting": "[1]; listed as 3", "result": 6, "unit": "μm"},
      {"measurement": "Particle size D50", "setting": "[1]; listed as 3", "result": 28, "unit": "μm"},
      {"measurement": "Particle size D90", "setting": "[1]; listed as 3", "result": 243, "unit": "μm"}
    ]},
    {"smiles": "NC(=O)c1ccc2c(c1O)[C@]13CCN(CC4CC4)[C@H](C2)[C@]1(O)CCC(=O)C3.O=C(O)C[C@H](O)C(=O)O", "note": "[Sample number 1]", "values": [
      {"measurement": "Particle size D10", "setting": "[1]; listed as 1", "result": 8, "unit": "μm"},
      {"measurement": "Particle size D50", "setting": "[1]; listed as 1", "result": 37, "unit": "μm"},
      {"measurement": "Particle size D90", "setting": "[1]; listed as 1", "result": 223, "unit": "μm"}
    ]},
    {"smiles": "NC(=O)c1ccc2c(c1O)[C@]13CCN(CC4CC4)[C@H](C2)[C@]1(O)CCC(=O)C3.O=C(O)C[C@H](O)C(=O)O", "note": "[Sample number 6]", "values": [
      {"measurement": "Particle size D10", "setting": "[1]; listed as 6", "result": 42, "unit": "μm"},
      {"measurement": "Particle size D50", "setting": "[1]; listed as 6", "result": 90, "unit": "μm"},
      {"measurement": "Particle size D90", "setting": "[1]; listed as 6", "result": 165, "unit": "μm"}
    ]},
    {"smiles": "NC(=O)c1ccc2c(c1O)[C@]13CCN(CC4CC4)[C@H](C2)[C@]1(O)CCC(=O)C3.O=C(O)C[C@H](O)C(=O)O", "note": "[Sample number 5]", "values": [
      {"measurement": "Particle size D10", "setting": "[1]; listed as 5", "result": 46, "unit": "μm"},
      {"measurement": "Particle size D50", "setting": "[1]; listed as 5", "result": 90, "unit": "μm"},
      {"measurement": "Particle size D90", "setting": "[1]; listed as 5", "result": 160, "unit": "μm"}
    ]},
    {"smiles": "NC(=O)c1ccc2c(c1O)[C@]13CCN(CC4CC4)[C@H](C2)[C@]1(O)CCC(=O)C3.O=C(O)C[C@H](O)C(=O)O", "note": "[Sample number 4]", "values": [
      {"measurement": "Particle size D10", "setting": "[1]; listed as 4", "result": 33, "unit": "μm"},
      {"measurement": "Particle size D50", "setting": "[1]; listed as 4", "result": 73, "unit": "μm"},
      {"measurement": "Particle size D90", "setting": "[1]; listed as 4", "result": 130, "unit": "μm"}
    ]},
    {"smiles": "Cc1cc2c(s1)Nc1ccccc1N=C2N1CCN(C)CC1", "note": "[Olanzapine, 2-methyl-4-(4-methyl-1-piperazinyl)-10H-thieno[2,3-b][1,5]benzodiazepine]", "values": [
      {"measurement": "Percentage Related Compound B Impurity", "setting": "[2]; INITIAL", "result": 0.01, "unit": "wt %"},
      {"measurement": "Percentage Related Compound B Impurity", "setting": "[2]; OPEN vial, 2 WEEK", "result": "<LOQ"},
      {"measurement": "Percentage Total Impurities", "setting": "[2]; CLOSED vial, 2 WEEK", "result": 0.00, "unit": "%"},
      {"measurement": "Percentage Total Impurities", "setting": "[2]; CLOSED vial, 6 WEEK", "result": 0.00, "unit": "%"},
      {"measurement": "Percentage Total Impurities", "setting": "[2]; CLOSED vial, 12 WEEK", "result": 0.00, "unit": "%"},
      {"measurement": "Percentage Total Impurities", "setting": "[2]; INITIAL", "result": 0.00, "unit": "%"},
      {"measurement": "Percentage Total Impurities", "setting": "[2]; OPEN vial, 2 WEEK", "result": 0.00, "unit": "%"},
      {"measurement": "Percentage Total Impurities", "setting": "[2]; OPEN vial, 6 WEEK", "result": 0.00, "unit": "%"},
      {"measurement": "Percentage Total Impurities", "setting": "[2]; OPEN vial, 12 WEEK", "result": 0.00, "unit": "%"}
    ]},
    {"smiles": "NC(=O)c1ccc2c(c1O)[C@]13CCN(CC4CC4)[C@H](C2)[C@]1(O)CCC(=O)C3.O=C(O)C[C@H](O)C(=O)O", "note": "[Samidorphan L-malate, morphinan-3-carboxamide, 17-(cyclopropylmethyl)-4, 14-dihydroxy6-oxo-, (2S)-2-hydroxybutanedioate]", "values": [
      {"measurement": "pKa (amine)", "setting": "[3]", "result": 8.3},
      {"measurement": "pKa (phenol)", "setting": "[3]", "result": 10.1},
      {"measurement": "Percentage Total Impurities", "setting": "[2]; CLOSED vial, 2 WEEK", "result": 0.00, "unit": "%"},
      {"measurement": "Percentage Total Impurities", "setting": "[2]; CLOSED vial, 6 WEEK", "result": 0.00, "unit": "%"},
      {"measurement": "Percentage Total Impurities", "setting": "[2]; CLOSED vial, 12 WEEK", "result": 0.00, "unit": "%"},
      {"measurement": "Percentage Total Impurities", "setting": "[2]; INITIAL", "result": 0.00, "unit": "%"},
      {"measurement": "Percentage Total Impurities", "setting": "[2]; OPEN vial, 2 WEEK", "result": 0.00, "unit": "%"},
      {"measurement": "Percentage Total Impurities", "setting": "[2]; OPEN vial, 6 WEEK", "result": 0.00, "unit": "%"},
      {"measurement": "Percentage Total Impurities", "setting": "[2]; OPEN vial, 12 WEEK", "result": 0.00, "unit": "%"}
    ]}
  ]
}
